# Patent publication US12458630B2, “Combination therapy for cancer” (The Regents of the University of California, priority 2020, dated 2025)
# What was measured:
# [1] = tested on: KC6141 mouse PDAC cells; test: Cell viability assay (CCK-8); assay type: cell-based; conditions: WT and IKKα KD 6141 cells on ECM, 0.5 mM glucose, 3 days; EIPA, IPI549 600 nM, MBQ-167 500 nM
# Procedure: Extracellular Matrix (ECM) Preparation. Skin fibroblasts were seeded on 6/12/96-well plates. One day after plating, cells were switched into DMEM (with pyruvate) with 10% dialysed FBS supplemented with or without 500 μM ^3H-proline and 100 μM Vitamin C. Cells were cultured for 6 days with media renewal every 24 h. After six days, skin fibroblasts were removed by washing in 1 ml or 500 μl or 100 μl per well PBS with 0.5% (v/v) Triton X-100 and 20 mM NH4OH. ECM was washed five times with PBS before plating KC6141 cells. The following day, KC6141 cells were switched into the indicated medium for 24 or 72 hrs.
# Cell viability assay. Cell viability was determined with Cell Counting Kit-8 assay (CCK-8 assay kit, Glpbio). Cells were plated in 96-well plates at a density of 3000 cells (MIA PaCa-2) or 1500 cells (KC6141) per well and incubated overnight prior to treatment. EIPA (10 μM), MRT68921 (600 nM) or erlotinib (2 μM, Sigma) were added to the wells for 72 and 96 hrs. Next, 10 μL of CCK-8 was added to each well. The optical density was read at 450 nm using a microplate reader (FilterMax F5, Molecular Devices, USA) at day 0, 1, 2, 3, and 4. For glutamine-deprivation assays, cells in 96-well plates were rinsed briefly in PBS and incubated in the 0.2 mM glutamine. Glutamine-free DMEM medium was supplemented with 0.2 mM glutamine in the presence of 10% dialysed FBS and 25 mM HEPES. For some conditions, the medium was supplemented with a final concentration of 2% BSA (Fraction V, fatty-acid-, nuclease and protease-free, Calbiochem). For all experiments, media were replaced every 24 hrs. Viable cell counts were obtained using CCK-8 assay described as above.
# In some embodiments, cells were plated in 96-well plates coated with or without ECM at a density of 3000 cells (MIA PaCa-2, 1444, 1305, COLO 357/FG) or 1500 cells (KC6141) per well and incubated overnight prior to treatment. EIPA (10.5 μM), IPI549 (600 nM), MBQ-167 (500 nM), MRT68921 (600 nM) or erlotinib (2 μM, Sigma), ML385 (10 μM, Sigma), HCQ (10 μM or 80 μM) or their combinations were added to the wells for 24, 72 or 96 hrs. Next, 10 μL of CCK-8 was added to each well. The optical density was read at 450 nm using a microplate reader (FilterMax F5, Molecular Devices, USA) at day 0, 1, 2, 3, and 4. For glutamine-deprivation assays, cells in 96-well plates were rinsed briefly in PBS and incubated in the 0.2 mM glutamine. Glutamine-free DMEM medium was supplemented with 0.2 mM glutamine in the presence of 10% dialyzed FBS and 25 mM HEPES. For glucose-deprivation assays, cells in 96-well plates were rinsed briefly in PBS and incubated in the 0.5 mM glucose. Glucose-free DMEM medium was supplemented with 0.5 mM glucose in the presence of 10% dialyzed FBS and 25 mM HEPES. For some conditions, the medium was supplemented with a final concentration of 2% BSA (Fraction V, fatty-acid-, nuclease and protease-free, Calbiochem). For all experiments, media were replaced every 24 hrs. Viable cell counts were obtained using CCK-8 assay described as above.
# [2] = tested on: AKT phosphorylation; test: Immunoblot of AKT phosphorylation; assay type: cell-based, human; conditions: NRF2(E79Q)-Myc-overexpressing MIA PaCa-2 cells, 600 nM IPI549
# Procedure: Immunoblot and immunoprecipitation. Cells were harvested and lysed in RIPA buffer (50 mM Tris-HCl, pH 7.4, 150 mM NaCl, 1% Triton X-100, 1% Na deoxycholate, 0.1% SDS, 1 mM EDTA) supplemented with complete protease inhibitor cocktail. Proteins were resolved on SDS-polyacrylamide gels, and then transferred to a polyvinylidene difluoride membrane. After blocking with 5% (w/v) fat free milk, the membrane was stained with the corresponding primary antibodies followed by incubation with the appropriate secondary HRP-conjugated antibodies, and development with ECL. Immunoreactive bands were detected by automatic X-ray film processor or KwikQuant Imager.
smiles,measurement,setting,value
C[C@H](NC(=O)c1c(N)nn2cccnc12)c1cc2cccc(C#Cc3cnn(C)c3)c2c(=O)n1-c1ccccc1 [IPI549],cell viability enhanced by extracellular matrix (ECM),[1],suppressed
same,AKT phosphorylation,[2],suppression of AKT phosphorylation
